Experimental data: ChEMBL document CHEMBL1201862, “PubChem BioAssay data set” (2004)
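Where inhibition never reached the appropriate level, the endpoint shown equals the highest concentration tested. Otherwise, values were interpolated linearly from a five-concentration, 48-hour dose response in 96-well plates. GI50 is the concentration that inhibits growth by half.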 Activity calls are given as the source filed them. Rule as the data show it: active = GI50 up to about 1.1 µM and inactive = higher.

What was measured:
Experiment in all cases: DTP human tumour cell line panel, 48 h
SK-MEL-5 = system: SK-MEL-5
ACHN = system: ACHN
HT-29 = system: HT-29
MDA-MB-435 = system: MDA-MB-435
NCI-H226 = system: NCI-H226
UACC-257 = system: UACC-257
KM12 = system: KM12
COLO 205 = system: COLO 205
SK-MEL-2 = system: SK-MEL-2
OVCAR-5 = system: OVCAR-5
NCI-H522 = system: NCI-H522
CAKI-1 = system: CAKI-1
UACC-62 = system: UACC-62
RXF 393 = system: RXF 393
OVCAR-8 = system: OVCAR-8
HCT-15 = system: HCT-15
A498 = system: A498
LOX IMVI = system: LOX IMVI
NCI-H460 = system: NCI-H460
HCC 2998 = system: HCC 2998

Compound	GI50 (SK-MEL-5)	GI50 (ACHN)	GI50 (HT-29)	GI50 (MDA-MB-435)	GI50 (NCI-H226)	GI50 (UACC-257)	GI50 (KM12)	GI50 (COLO 205)	GI50 (SK-MEL-2)	GI50 (OVCAR-5)	GI50 (NCI-H522)	GI50 (CAKI-1)	GI50 (UACC-62)	GI50 (RXF 393)	GI50 (OVCAR-8)	GI50 (HCT-15) [µM]	GI50 (A498)	GI50 (LOX IMVI)	GI50 (NCI-H460)	GI50 (HCC 2998)
Cc1ncc(CSc2ccccc2N)c(CO)c1O	> 100 µM (inactive)	> 100 µM (inactive)	> 100 µM (inactive)	> 100 µM (inactive)	> 100 µM (inactive)	> 100 µM (inactive)	> 100 µM (inactive)	> 100 µM (inactive)	> 100 µM (inactive)	> 100 µM (inactive)	> 100 µM (inactive)	> 100 µM (inactive)	65.8 µM (inactive)	> 100 µM (inactive)	> 100 µM (inactive)	> 100	> 100 µM (inactive)	> 100 µM (inactive)	–	–
CCOC(=O)CCC(NC(=O)c1ccc(Nc2nc3ccccc3nc2C(=O)OCC)cc1)C(=O)OCC (centres undefined)	27.8 µM (inactive)	3.58 µM (inactive)	4.67 µM (inactive)	3.91 µM (inactive)	3.24 µM (inactive)	18.9 µM (inactive)	3.78 µM (inactive)	> 33.7 µM (inactive)	6.79 µM (inactive)	> 28.6 µM (inactive)	3.3 µM (inactive)	5.96 µM (inactive)	3.2 µM (inactive)	–	2.75 µM (inactive)	18.1	6.79 µM (inactive)	5.58 µM (inactive)	> 72.1 µM (inactive)	> 76 µM (inactive)
CCC1([N+](=O)[O-])CC2C=CC1C2 (centres undefined)	> 100 µM (inactive)	> 100 µM (inactive)	> 100 µM (inactive)	> 100 µM (inactive)	> 100 µM (inactive)	> 100 µM (inactive)	> 100 µM (inactive)	> 100 µM (inactive)	> 100 µM (inactive)	> 100 µM (inactive)	> 100 µM (inactive)	> 100 µM (inactive)	> 100 µM (inactive)	> 100 µM (inactive)	> 100 µM (inactive)	> 100	> 100 µM (inactive)	> 100 µM (inactive)	> 100 µM (inactive)	–
COc1ccc(CCCNC(=O)Cc2cc(OC)c(OC)cc2CO)cc1OC	> 100 µM (inactive)	> 100 µM (inactive)	> 100 µM (inactive)	> 100 µM (inactive)	> 100 µM (inactive)	> 100 µM (inactive)	> 100 µM (inactive)	> 100 µM (inactive)	> 100 µM (inactive)	> 100 µM (inactive)	–	> 100 µM (inactive)	> 100 µM (inactive)	–	> 100 µM (inactive)	> 100	> 100 µM (inactive)	> 100 µM (inactive)	> 100 µM (inactive)	> 100 µM (inactive)
CCOC(=O)C1=C(C(=O)c2ccc(C)cc2)C(c2cccc([N+](=O)[O-])c2)C(C(=O)c2ccc(C)cc2)=C(C(=O)OCC)N1	17.8 µM (inactive)	15.1 µM (inactive)	13 µM (inactive)	16 µM (inactive)	19.1 µM (inactive)	21.4 µM (inactive)	12.8 µM (inactive)	1.95 µM (inactive)	26.1 µM (inactive)	17.2 µM (inactive)	15.6 µM (inactive)	19.5 µM (inactive)	18.2 µM (inactive)	21 µM (inactive)	22.5 µM (inactive)	0.853	–	17.6 µM (inactive)	31.6 µM (inactive)	–
CN1CN(c2ccccc2)C2(CCN(CCc3csc4ccccc34)CC2)C1=O	17.5 µM (inactive)	> 10 µM (inactive)	4.04 µM (inactive)	14.4 µM (inactive)	17.4 µM (inactive)	14.4 µM (inactive)	12.6 µM (inactive)	14.3 µM (inactive)	–	11.9 µM (inactive)	15.9 µM (inactive)	11.2 µM (inactive)	19.9 µM (inactive)	12.6 µM (inactive)	21.4 µM (inactive)	10.7	–	13.7 µM (inactive)	–	7.21 µM (inactive)
O=c1c2ccccc2c2c1c1c3ccccc3c(=O)c1c1c3ccccc3c(=O)c21	> 100 µM (inactive)	> 100 µM (inactive)	> 100 µM (inactive)	> 100 µM (inactive)	> 100 µM (inactive)	> 100 µM (inactive)	> 100 µM (inactive)	> 100 µM (inactive)	> 100 µM (inactive)	> 100 µM (inactive)	> 100 µM (inactive)	> 100 µM (inactive)	> 100 µM (inactive)	–	> 100 µM (inactive)	> 100	> 100 µM (inactive)	> 100 µM (inactive)	> 100 µM (inactive)	> 100 µM (inactive)
CCOC(=O)c1nc2c3c(ncn2n1)Oc1c(c(-c2ccccc2)nn1-c1ccccc1)C3c1ccc(OC)c(OC)c1 (centres undefined)	78.9 µM (inactive)	47 µM (inactive)	> 100 µM (inactive)	> 100 µM (inactive)	–	> 100 µM (inactive)	> 10 µM (inactive)	> 100 µM (inactive)	> 100 µM (inactive)	> 100 µM (inactive)	> 100 µM (inactive)	50.1 µM (inactive)	48.6 µM (inactive)	23.4 µM (inactive)	25.9 µM (inactive)	> 100	–	> 100 µM (inactive)	22.3 µM (inactive)	> 100 µM (inactive)
COc1ccc2c(c1)C1Oc3ccccc3CC1(O)CO2 (centres undefined)	> 100 µM (inactive)	> 100 µM (inactive)	> 100 µM (inactive)	> 100 µM (inactive)	> 100 µM (inactive)	> 100 µM (inactive)	> 100 µM (inactive)	> 100 µM (inactive)	> 100 µM (inactive)	> 100 µM (inactive)	> 100 µM (inactive)	> 100 µM (inactive)	> 100 µM (inactive)	–	> 100 µM (inactive)	> 100	> 100 µM (inactive)	> 100 µM (inactive)	–	> 100 µM (inactive)
CS/C(=N\S(=O)(=O)c1ccc(Cl)cc1)NCCCCN/C(=N/S(=O)(=O)c1ccc(Cl)cc1)SC	–	> 100 µM (inactive)	> 100 µM (inactive)	> 100 µM (inactive)	–	> 100 µM (inactive)	–	> 100 µM (inactive)	> 100 µM (inactive)	> 100 µM (inactive)	–	> 100 µM (inactive)	> 100 µM (inactive)	–	75.3 µM (inactive)	> 100	32.6 µM (inactive)	> 100 µM (inactive)	> 100 µM (inactive)	> 100 µM (inactive)
CC(=O)C1=C(O)C(N)C2Cc3c(c(O)c4c(O)c(C)ccc4c3C)C(=O)C2(O)C1=O (centres undefined)	1.19 µM (inactive)	1.35 µM (inactive)	2.23 µM (inactive)	–	1.56 µM (inactive)	2.48 µM (inactive)	1.9 µM (inactive)	1.64 µM (inactive)	3.56 µM (inactive)	4.46 µM (inactive)	3.98 µM (inactive)	1.52 µM (inactive)	1.25 µM (inactive)	4.43 µM (inactive)	1.39 µM (inactive)	0.774	2.8 µM (inactive)	0.973 µM (active)	1.3 µM (inactive)	3.28 µM (inactive)
Cc1ccc(NC(=O)/C(Cc2nc3ccc([N+](=O)[O-])cc3nc2O)=N\NC(=O)C[n+]2ccccc2)c(C)c1	16.9 µM (inactive)	20.5 µM (inactive)	> 100 µM (inactive)	97.3 µM (inactive)	74.6 µM (inactive)	49.4 µM (inactive)	74.6 µM (inactive)	43.5 µM (inactive)	39.9 µM (inactive)	> 100 µM (inactive)	19.4 µM (inactive)	34.7 µM (inactive)	55.1 µM (inactive)	4.06 µM (inactive)	30.3 µM (inactive)	49.4	–	59 µM (inactive)	26.8 µM (inactive)	> 100 µM (inactive)
CC1=NN2CCC(=O)N=C2S1	> 100 µM (inactive)	> 100 µM (inactive)	> 100 µM (inactive)	> 100 µM (inactive)	> 100 µM (inactive)	> 100 µM (inactive)	> 100 µM (inactive)	> 100 µM (inactive)	> 100 µM (inactive)	> 100 µM (inactive)	> 100 µM (inactive)	> 100 µM (inactive)	> 100 µM (inactive)	> 100 µM (inactive)	> 100 µM (inactive)	> 100	–	> 100 µM (inactive)	> 100 µM (inactive)	–
CCO/N=C(/N)c1ncn(Cc2ccccc2)c1NCC(OCC)OCC	> 100 µM (inactive)	> 100 µM (inactive)	> 100 µM (inactive)	–	> 100 µM (inactive)	> 100 µM (inactive)	> 100 µM (inactive)	> 100 µM (inactive)	> 100 µM (inactive)	> 100 µM (inactive)	> 100 µM (inactive)	> 100 µM (inactive)	> 100 µM (inactive)	29.2 µM (inactive)	> 100 µM (inactive)	> 100	> 100 µM (inactive)	> 100 µM (inactive)	> 100 µM (inactive)	> 100 µM (inactive)
C[N+]1(C)C(c2ccccc2)C(=O)O[B@-]1(F)c1ccccc1 (some centres undefined)	> 100 µM (inactive)	> 100 µM (inactive)	> 100 µM (inactive)	> 100 µM (inactive)	> 100 µM (inactive)	> 100 µM (inactive)	–	> 100 µM (inactive)	–	> 100 µM (inactive)	–	–	> 100 µM (inactive)	–	> 100 µM (inactive)	> 100	25.7 µM (inactive)	> 100 µM (inactive)	> 100 µM (inactive)	> 100 µM (inactive)
